Calls of active or inactive are those of the source. The rule behind the calls is not given here.
Assays:
HuH-1 [1] = test: Antiproliferative activity against human HuH-1 cells assessed as inhibition of cell growth incubated for 48 hrs by CCK-8 method; type: functional, cell-based; conditions: HuH-1, 48 h
H22 = test: Antiproliferative activity against mouse H22 cells assessed as inhibition of cell growth incubated for 48 hrs by CCK-8 method; type: functional, cell-based; conditions: H22, 48 h
Huh-7 = test: Antiproliferative activity against human Huh-7 cells assessed as inhibition of cell growth incubated for 48 hrs by CCK-8 method; type: functional, cell-based; conditions: Huh-7, 48 h
HuH-1 [2] = test: Antitumor activity against human HuH-1 cells xenografted in NCG mouse model assessed as reduction in tumor cell density at 20 mg/kg, ip administered every other day for 14 days; type: functional, organism-based; conditions: time 14.0 day
HuH-1 [3] = test: Antitumor activity against human HuH-1 cells xenografted in NCG mouse model assessed as increase in tumor cell death at 20 mg/kg, ip administered every other day for 14 days; type: functional, organism-based; conditions: time 14.0 day
HuH-1 [4] = test: Antitumor activity against human HuH-1 cells xenografted in NCG mouse model assessed as increase in tumor cell death at 15 mg/kg, ip administered every other day for 14 days; type: functional, organism-based; conditions: time 14.0 day
HuH-1 [5] = test: Antitumor activity against human HuH-1 cells xenografted in NCG mouse model assessed as reduction in tumor cell density at 15 mg/kg, ip administered every other day for 14 days; type: functional, organism-based; conditions: time 14.0 day
[6] = Antiproliferative activity against mouse AML12 cells assessed as inhibition of cell growth incubated for 48 hrs by CCK-8 method; type: toxicity, cell-based
Hepa 1-6 = test: Antiproliferative activity against mouse Hepa1-6 cells assessed as inhibition of cell growth incubated for 48 hrs by CCK-8 method; type: functional, cell-based; conditions: Hepa1-6, 48 h
HepG2 = test: Antiproliferative activity against human HepG2 cells assessed as inhibition of cell growth incubated for 48 hrs by CCK-8 method; type: functional, cell-based; conditions: HepG2, 48 h
HuH-6 = test: Antiproliferative activity against human HuH-6 cells assessed as inhibition of cell growth incubated for 48 hrs by CCK-8 method; type: functional, cell-based; conditions: HuH-6, 48 h
MHCC97H = test: Antiproliferative activity against human MHCC97H cells assessed as inhibition of cell growth incubated for 48 hrs by CCK-8 method; type: functional, cell-based
HuH-1 [7] = test: Antitumor activity against human HuH-1 cells xenografted in NCG mouse model assessed as reduction in tumor size at 15 mg/kg, ip administered every other day for 14 days; type: functional, organism-based; conditions: time 14.0 day
HuH-1 [8] = test: Antitumor activity against human HuH-1 cells xenografted in NCG mouse model assessed as reduction in tumor weight at 15 mg/kg, ip administered every other day for 14 days; type: functional, organism-based; conditions: time 14.0 day
[9] = Toxicity in NCG mouse assessed as pathological change in heart at 15 mg/kg, ip measured after 14 days by H and E staining based analysis; type: organism-based; conditions: in vivo, 336 h, time 14 day
[10] = Toxicity in NCG mouse assessed as pathological change in liver at 15 mg/kg, ip measured after 14 days by H and E staining based analysis; type: organism-based; conditions: in vivo, 336 h, time 14 day
[11] = Toxicity in NCG mouse assessed as pathological change in spleen at 15 mg/kg, ip measured after 14 days by H and E staining based analysis; type: organism-based; conditions: in vivo, 336 h, time 14 day
[12] = Toxicity in NCG mouse assessed as pathological change in lung at 15 mg/kg, ip measured after 14 days by H and E staining based analysis; type: organism-based; conditions: in vivo, 336 h, time 14 day
[13] = Toxicity in NCG mouse assessed as pathological change in kidney at 15 mg/kg, ip measured after 14 days by H and E staining based analysis; type: organism-based; conditions: in vivo, 336 h, time 14 day
[14] = Toxicity in NCG mouse assessed as pathological change in tumor at 15 mg/kg, ip measured after 14 days by H and E staining based analysis; type: organism-based; conditions: in vivo, 336 h, time 14 day
[15] = Toxicity in NCG mouse assessed as effect on HCT level at 15 mg/kg, ip measured after 14 days; type: organism-based; conditions: in vivo, 336 h, time 14 day
[16] = Toxicity in NCG mouse assessed as effect on HGB level at 15 mg/kg, ip measured after 14 days; type: organism-based; conditions: in vivo, 336 h, time 14 day
[17] = Toxicity in NCG mouse assessed as effect on MCH level at 15 mg/kg, ip measured after 14 days; type: organism-based; conditions: in vivo, 336 h, time 14 day
[18] = Toxicity in NCG mouse assessed as effect on MCV level at 15 mg/kg, ip measured after 14 days; type: organism-based; conditions: in vivo, 336 h, time 14 day
[19] = Toxicity in NCG mouse assessed as effect on RBC level at 15 mg/kg, ip measured after 14 days; type: organism-based, Erythrocyte; conditions: in vivo, 336 h, time 14 day
[20] = Toxicity in NCG mouse assessed as effect on UREA level at 15 mg/kg, ip measured after 14 days; type: organism-based; conditions: in vivo, 336 h, time 14 day
[21] = Toxicity in NCG mouse assessed as effect on ALB level at 15 mg/kg, ip measured after 14 days; type: organism-based; conditions: in vivo, 336 h, time 14 day
[22] = Toxicity in NCG mouse assessed as effect on ALT level at 15 mg/kg, ip measured after 14 days; type: organism-based; conditions: in vivo, 336 h, time 14 day
[23] = Toxicity in NCG mouse assessed as effect on AST level at 15 mg/kg, ip measured after 14 days; type: organism-based; conditions: in vivo, 336 h, time 14 day
[24] = Toxicity in NCG mouse assessed as effect on LDH level at 15 mg/kg, ip measured after 14 days; type: organism-based; conditions: in vivo, 336 h, time 14 day
HuH-1 [25] = test: Induction of autophagy in human HuH-1 cells assessed as increase in LC3BII expression by […] based analysis; type: functional, cell-based
HuH-1 [26] = test: Induction of autophagy in human HuH-1 cells assessed as increase in LC3BI expression by […] based analysis; type: functional, cell-based
HuH-1 [27] = test: Induction of autophagy in human HuH-1 cells assessed as increase in ATG5 expression by […] based analysis; type: functional, cell-based
HuH-1 [28] = test: Induction of autophagy in human HuH-1 cells assessed as downregulation of P62 expression by […] based analysis; type: functional, cell-based

| SMILES | IC50 (HuH-1 [1]) | IC50 (Huh-7) | IC50 (HepG2) | IC50 (HuH-6) | IC50 (H22) | IC50 at 48 h [6] | IC50 (Hepa 1-6) | IC50 (MHCC97H) | other results |
| --- | --- | --- | --- | --- | --- | --- | --- | --- | --- |
| COC(=O)[C@H](CCCCNC(=O)CN1C(=O)C(=O)c2cc(C)ccc21)NC(=O)CN1C(=O)C(=O)c2cc(C)ccc21 | 35.1 µM | 32.9 µM | > 100 µM | > 100 µM | > 100 µM | > 100 µM | > 100 µM | > 100 µM |  |
| COC(=O)[C@H](CCCCNC(=O)CN1C(=O)C(=O)c2cc(OC)ccc21)NC(=O)CN1C(=O)C(=O)c2cc(OC)ccc21 | > 100 µM | > 100 µM | > 100 µM | > 100 µM | > 100 µM | > 100 µM | > 100 µM | > 100 µM |  |
| COC(=O)[C@H](CCCCNC(=O)CN1C(=O)C(=O)c2cc(F)ccc21)NC(=O)CN1C(=O)C(=O)c2cc(F)ccc21 | > 100 µM | > 100 µM | > 100 µM | > 100 µM | > 100 µM | > 100 µM | > 100 µM | > 100 µM | Activity (HuH-1 [25]): Active; Activity (HuH-1 [26]): Active; Activity (HuH-1 [27]): Active; Activity (HuH-1 [28]): Active |
| COC(=O)[C@H](CCCCNC(=O)CN1C(=O)C(=O)c2ccccc21)NC(=O)CN1C(=O)C(=O)c2ccccc21 | > 100 µM | > 100 µM | > 100 µM | > 100 µM | > 100 µM | > 100 µM | > 100 µM | > 100 µM |  |

The next molecules have a lower IC50 (HuH-1 [1]) than those just listed; values first:

| IC50 (HuH-1 [1]) | IC50 (Huh-7) | IC50 (HepG2) | IC50 (HuH-6) | SMILES | IC50 (H22) | IC50 at 48 h [6] | IC50 (Hepa 1-6) | IC50 (MHCC97H) | other results |
| --- | --- | --- | --- | --- | --- | --- | --- | --- | --- |
| 9.63 µM | 14.7 µM |  |  | CNC(=O)c1cc(Oc2ccc(NC(=O)Nc3ccc(Cl)c(C(F)(F)F)c3)cc2)ccn1 [SORAFENIB] | 10.7 µM |  |  |  | Activity (HuH-1 [2]): Active; Activity (HuH-1 [3]): Active |
| 17.1 µM | 8.27 µM | > 100 µM | > 100 µM | COC(=O)[C@H](CCCCNC(=O)CN1C(=O)C(=O)c2cc(Br)ccc21)NC(=O)CN1C(=O)C(=O)c2cc(Br)ccc21 | 16.9 µM | > 100 µM | > 100 µM | > 100 µM | Activity (HuH-1 [4]): Active; Activity (HuH-1 [5]): Active; Activity (HuH-1 [7]): Active; Activity (HuH-1 [8]): Active; Activity [9]: Non-Toxic; Activity [10]: Non-Toxic; Activity [11]: Non-Toxic; Activity [12]: Non-Toxic; Activity [13]: Non-Toxic; Activity [14]: Non-Toxic; Activity [15]: Non-Toxic; Activity [16]: Non-Toxic; Activity [17]: Non-Toxic; Activity [18]: Non-Toxic; Activity [19]: Non-Toxic; Activity [20]: Non-Toxic; Activity [21]: Non-Toxic; Activity [22]: Non-Toxic; Activity [23]: Non-Toxic; Activity [24]: Non-Toxic |
| 26.4 µM | 29.9 µM | > 100 µM | > 100 µM | COC(=O)[C@H](CCCCNC(=O)CN1C(=O)C(=O)c2cc(Cl)ccc21)NC(=O)CN1C(=O)C(=O)c2cc(Cl)ccc21 | 45.8 µM | > 100 µM | > 100 µM | > 100 µM |  |

Source: ChEMBL document CHEMBL5584217, “Synthesis, biological activity evaluation and mechanism of action of novel bis-isatin derivatives as potential anti-liver cancer agents” (Bioorg Med Chem Lett, 2024)
